Results: patent US9434763B2, “Derivatives of pyridinone as inhibitors for tissue transglutaminase” (ZEDIRA GMBH, priority 2012, dated 2016)

Molecular target: T1, His tagged recombinant human tissue transglutaminase (His6-rh-TG2) (Homo sapiens, UniProt P21980)
T1 construct: purchased Zedira T002
T1 sequence (P21980 1-687): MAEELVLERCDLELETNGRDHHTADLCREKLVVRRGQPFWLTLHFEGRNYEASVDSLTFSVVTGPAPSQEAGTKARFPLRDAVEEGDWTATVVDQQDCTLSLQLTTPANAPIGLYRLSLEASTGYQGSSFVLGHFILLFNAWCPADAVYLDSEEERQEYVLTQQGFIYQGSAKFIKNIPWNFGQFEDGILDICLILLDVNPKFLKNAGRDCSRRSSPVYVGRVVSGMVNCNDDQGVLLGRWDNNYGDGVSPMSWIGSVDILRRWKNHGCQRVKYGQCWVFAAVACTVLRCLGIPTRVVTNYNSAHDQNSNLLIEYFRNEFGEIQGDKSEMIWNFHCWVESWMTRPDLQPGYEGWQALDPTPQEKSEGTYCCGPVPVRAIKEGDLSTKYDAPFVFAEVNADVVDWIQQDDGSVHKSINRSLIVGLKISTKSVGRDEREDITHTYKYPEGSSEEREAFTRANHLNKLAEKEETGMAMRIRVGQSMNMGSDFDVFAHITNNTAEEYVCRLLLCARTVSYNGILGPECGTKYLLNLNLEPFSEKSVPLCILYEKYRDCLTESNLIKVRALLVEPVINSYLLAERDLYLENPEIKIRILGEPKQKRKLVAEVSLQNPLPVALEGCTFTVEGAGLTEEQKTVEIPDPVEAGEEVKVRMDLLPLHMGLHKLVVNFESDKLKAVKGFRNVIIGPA
Assay: Inactivation of human tissue transglutaminase, fluorescence assay with Abz-APE(CAD-DNP)QEA-OH
Format: biochemical
Conditions: substrate Abz-APE(CAD-DNP)QEA-OH, 37° C., pH=7.5
Method: General Method for Inactivation of Human Tissue Transglutaminase
250 μg lyophilized His tagged recombinant human tissue transglutaminase (His6-rh-TG2, Zedira product T002) are reconstituted by adding 150 μl water (resulting buffer 50 mM NaH2PO4, 150 mM NaCl, pH=8.0).
A 10 mM inhibitor stock solution in DMSO is prepared and is diluted with buffer (50 mM Tris-HCl, 10 mM CaCl2, 5 mM DTT, pH=7.5) each to the twentyfold of the concentration desired in the preparation (but at least 1/50 dilution resulting in a 2% DMSO concentration).
900 μl of an assay-solution consisting of 55.56 mM Tris, 11.11 mM CaCl2, 0.11% PEG8000, 5.56 mM DTT, 5.56 mM glycine methyl ester and 50 μM Abz-APE(CAD-DNP)QEA-OH, (Zedira product A102; patent No.: EP 1781807B1), pH=7.5 are added to a cuvette and heated in a measuring cell of a spectrophotometer to 37° C. 50 μl of the particular inhibitor solution are added to this solution (resulting in a concentration of less than 0.2% DMSO in the mixture).
7 μl of the transglutaminase solution reconstituted above are diluted with 51 μl buffer (50 mM Tris, 100 mM NaCl, 5 mM DTT, pH=7.5). 50 μl of this enzyme solution (10 μg His6-rhTG2) are added to the assay-solution containing the particular inhibitor concentration. It is incubated 5 min at 37° C. before measuring starts (λexc=313 nm and λem=418 nm, t=15 to 30 min).
The evaluation of the resulting enzyme activity is done using the slope of the straight line obtained by the increase in fluorescence.
To determine the non-inhibited enzyme activity, DMSO instead of inhibitor stock solution is used. IC50 values are determined by plotting the resulting enzyme activity against the logarithm of the inhibitor concentration. IC50 is defined as the concentration of inhibitor resulting in 50% of enzyme activity.

An IC50 of 4800 nM was found for CCOC(=O)/C=C/CC[C@H](NC(C)=O)C(=O)Nc1cccn(CC(=O)NCCN(CC)CC)c1=O [A25, (S,E)-Ethyl 6-acetamido-7-(1-(2-(2-(diethylamino)ethylamino)-2-oxoethyl)-2-oxo-1,2-dihydropyridin-3-ylamino)-7-oxohept-2-enoate] in this work.

An IC50 of 251 nM was found for CCOC(=O)/C=C/CC[C@H](NC(=O)c1cccnc1)C(=O)Nc1ccc(C)n(CC(=O)NCCc2ccccc2)c1=O [A8, (S,E)-Ethyl 7-(6-methyl-2-oxo-1-(2-oxo-2-(phenethylamino)ethyl)-1,2-dihydropyridin-3-ylamino)-6-(nicotinamido)-7-oxohept-2-enoate] in this work.

An IC50 of 115 nM was found for CCOC(=O)/C=C/CC[C@H](NC(C)=O)C(=O)Nc1cccn(CC(=O)NCCC(C)(C)C)c1=O [A39, (S,E)-Ethyl 6-acetamido-7-(1-(2-(3,3-dimethylbutylamino)-2-oxoethyl)-2-oxo-1,2-dihydropyridin-3-ylamino)-7-oxohept-2-enoate] in this work.

An IC50 of 119 nM was found for CCOC(=O)/C=C/CC[C@H](NC(C)=O)C(=O)Nc1ccc(C)n(CC(=O)NCCC(C)C)c1=O [A4, (S,E)-Ethyl 6-acetamido-7-(1-(2-(isopentylamino)-2-oxoethyl)-6-methyl-2-oxo-1,2-dihydropyridin-3-ylamino)-7-oxohept-2-enoate] in this work.

An IC50 of 480 nM was found for CCOC(=O)/C=C/CC[C@H](NC(=O)CCC(=O)O)C(=O)Nc1cccn(CC(=O)NCCc2cccs2)c1=O [A47, (S,E)-4-(7-Ethoxy-1,7-dioxo-1-(2-oxo-1-(2-oxo-2-(2-(thiophen-2-yl)ethylamino)ethyl)-1,2-dihydropyridin-3-ylamino)hept-5-en-2-ylamino)-4-oxobutanoic acid] in this work.

An IC50 of 191 nM was found for CCOC(=O)/C=C/CC[C@H](NC(C)=O)C(=O)Nc1cccn(CC(=O)NCC(C)C)c1=O [A54, (S,E)-Ethyl 6-acetamido-7-(1-(2-(isobutylamino)-2-oxoethyl)-2-oxo-1,2-dihydropyridin-3-ylamino)-7-oxohept-2-enoate] in this work.

An IC50 of 175 nM was found for CCOC(=O)/C=C/CC[C@H](NC(=O)c1ccc(N2CCCCC2)cc1)C(=O)Nc1cccn(CC(=O)NCCC(C)C)c1=O [A18, (S,E)-Ethyl 7-(1-(2-(isopentylamino)-2-oxoethyl)-2-oxo-1,2-dihydropyridin-3-ylamino)-7-oxo-6-(4-(piperidin-1-yl)benzamido)hept-2-enoate] in this work.

An IC50 of 153 nM was found for CCOC(=O)/C=C/CC[C@H](NC(C)=O)C(=O)Nc1cccn(CC(=O)NC(C)C(C)C)c1=O (stereo partly drawn) [A55, (6S,E)-Ethyl 6-acetamido-7-(1-(2-(3-methylbutan-2-ylamino)-2-oxoethyl)-2-oxo-1,2-dihydropyridin-3-ylamino)-7-oxohept-2-enoate] in this work.

An IC50 of 133 nM was found for CCOC(=O)/C=C/CC[C@H](NS(=O)(=O)c1ccccc1)C(=O)Nc1cccn(CC(=O)NCCC(C)C)c1=O [A22, (S,E)-Ethyl 7-(1-(2-(isopentylamino)-2-oxoethyl)-2-oxo-1,2-dihydropyridin-3-ylamino)-7-oxo-6-(phenylsulfonamido)hept-2-enoate] in this work.

An IC50 of 81 nM was found for CCC(CC)CNC(=O)Cn1cccc(NC(=O)[C@H](CC/C=C/C(=O)OC)NC(=O)c2ccccc2N)c1=O [A70, (S,E)-Methyl 6-(2-aminobenzamido)-7-(1-(2-(2-ethylbutylamino)-2-oxoethyl)-2-oxo-1,2-dihydropyridin-3-ylamino)-7-oxohept-2-enoate 2,2,2-trifluoroacetate] in this work.

An IC50 of 310 nM was found for COC(=O)/C=C/CC[C@H](NC(C)=O)C(=O)Nc1cccn(CC(=O)N2CCCC(C(F)(F)F)C2)c1=O (stereo partly drawn) [A66, (6S,E)-Methyl 6-acetamido-7-oxo-7-(2-oxo-1-(2-oxo-2-(3-(trifluoromethyl)piperidin-1-yl)ethyl)-1,2-dihydropyridin-3-ylamino)hept-2-enoate] in this work.

An IC50 of 54700 nM was found for CCC(CC)CNC(=O)Cn1cccc(NC(=O)[C@@H](CC/C=C/C(=O)OC)NC(=O)c2cncn2C)c1=O [A76, (R,E)-Methyl 7-(1-(2-(2-ethylbutylamino)-2-oxoethyl)-2-oxo-1,2-dihydropyridin-3-ylamino)-6-(1-methyl-1H-imidazole-5-carboxamido)-7-oxohept-2-enoate] in this work.
